In patent publication KR20100138114A, “안정성이 향상된 무정형 아데포비어 디피복실 고체분산체 및 이의 제조방법” (대원제약주식회사, priority 2009, dated 2010):

What was measured:
[1] = pH 2.0; cited from earlier work
[2] = Crystal form conversion test of crystalline adefovir dipivoxil (Experimental Example 1, X-ray diffraction); assay type: physicochemical; settings: overall conclusion: 40 °C, relative humidity 75%, 3 days, then drying at 60 °C

CC(C)(C)C(=O)OCOP(=O)(COCCn1cnc2c(N)ncnc21)OCOC(=O)C(C)(C)C [아데포비어 디피복실, 9-[2-[[{bis(pivaloyloxy)-methoxy}phosphinyl]methoxy]ethyl]adenine]
solubility class (BCS) [1]: 높은 용해도(High solubility)

CC(C)(C)C(=O)OCOP(=O)(COCCn1cnc2c(N)ncnc21)OCOC(=O)C(C)(C)C [신규결정형]
crystal form conversion depending on storage conditions [2]: 결정형이 전환
